In data set [1] the test system is patients with FSGS. In words: Phase 2 open-label basket study, FSGS cohort: urine protein to creatinine ratio (UPCR). The data set is classed as in vivo, human. As to conditions: 0.75 mg atrasentan daily; week 24 vs week 0; twenty patients with FSGS. From the text:
Subjects will be enrolled in disease specific cohorts as follows: • Cohort 1: IgAN (with UPCR 0.5 to <1.[…]) • Cohort 2: FSGS • Cohort 2b: FSGS (dose escalation) • Cohort 3: Alport syndrome • Cohort 4: DKD • Cohort 5: FSGS (higher dose cohort) Subjects in Cohorts 2 and 5 (FSGS) include the following characteristics: • Biopsy-confirmed FSGS or documentation of a genetic mutation in a podocyte protein associated with FSGS. […] Urine Protein to Creatinine Ratio (UPCR) will be assessed. Assessment of proteinuria plays an important role in the diagnosis of kidney disease and in monitoring disease activity (Zhao, 2016). UPCR is widely used for proteinuria evaluation in clinical practice. UPCR will be measured using FMV urine sample and a 24-hour urine collection at timepoints. […] Twenty patients with FSGS were enrolled in the study if the inclusion and exclusion criteria of Example 1 were met.

Data set [2] relates to subjects with DKD. The settings on record: RADAR Phase 2b, cited from earlier work.
For data set [3] the following is noted: 0.75 mg dose; DKD; PK-PD exposure-response model; cited from earlier work.
The test system of data set [4] is patients with diabetic kidney disease. The settings on record: cited from earlier work.
[5] abbreviates: daily dose 0.75 mg, dose-range finding studies and exposure-response analyses.

Read-outs that look alike come from different tables or passages of the source.

As for `CCCCN(CCCC)C(=O)CN1C[C@H](c2ccc3c(c2)OCO3)[C@@H](C(=O)O)[C@@H]1c1ccc(OC)cc1` [Atrasentan, (2R,3R,4S)-4-(1,3-benzodioxol-5-yl)-1-[2-(dibutylamino)-2-oxoethyl]-2-(4-methoxyphenyl)pyrrolidine-3-carboxylic acid], the “reduction in UPCR compared the baseline measurement” value in data set [1] amounted to 38.3%. Further, in data set [2] (0.75 mg dose), the “fluid retention (body weight, edema incidence, treatment discontinuations)” value is listed as “only minimal evidence for fluid retention” and the proteinuria reduction was 35%. For the same molecule, in data set [2] (1.25 mg dose), the “fluid retention related adverse events” value is recorded as “greater fluid retention related adverse events including treatment discontinuation” and the proteinuria reduction is 38%. For the same molecule, in data set [3], the Ctrough range was 1.2 to 2.2 ng/mL. Further, in data set [4] (setting [5]), the UACR entry is reported as “marked reduction” and the fluid retention result was “only modest fluid retention”. Moreover, the “risk of renal events (doubling of serum creatinine or end-stage kidney disease)” value in data set [4] (patients with diabetic kidney disease) was “significantly reducing the risk of renal events”. Also, the “most common adverse events associated with treatment” value in data set [4] (subjects with DKD) was “fluid retention, hemodilution, and vasodilation”.

These data come from patent US20250352511A1 (CHINOOK THERAPEUTICS, INC., priority 2022, published 2025).
